Experimental data taken from the supplement of paper PMC11208160.

Test: recombinant UMI read abundance after kanamycin selection (control-corrected) (log10(CPM+1)); higher = more efficient recombination; extreme values may be limits of the assay; sequences stand for … in AGTGCAGAGAAAATCGGCCAGTTTTCTCTGCCTGCAGTCCGCATGCCGTGGGACCCCTTGGGTTCTAACCTGTTGCCTAGATTTATGCAGCGGACTGCCTTTCTCCCAAAGTGATAAACCGG…AGGTTGGTTTCACT; site = the 11-nt donor
Procedure, shortened: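 Sequenced counts of recombinant UMIs were turned into CPM, averaged across replicates and scaled with control-derived factors. The reported figure is log10(CPM+1). Those UMIs, each 12 nt long, tagged donor and donor-binding-loop pairs on a plasmid with a promoterless kanamycin gene, screened as a pool in Escherichia coli with IPTG (0.07 mM) plus kanamycin or without selection.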
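Further: IS621 bridge recombinase in Escherichia coli cells against a fixed T5 target plasmid.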

Sequence | recombinant UMI read abundance (log10)
CGGAATCCATGGACCGGTTTTCCCGGTAATCCGTATTTGTT (site CGCAATCCTAC) | 0
CGGAATCCATGGACCGGTTTTCCCGGTAATCCGTATTTGTT (site CGCAATCCTCA) | 0.00634
CGGAATCCATGGACCGGTTTTCCCGGTAATCCGTATTTGTT (site CGCAATGCTAA) | 0.00802
CGGAATCCATGGACCGGTTTTCCCGGTAATCCGTATTTGTT (site CGCACTCCTAA) | 0.0157
CGGAATCCATGGACCGGTTTTCCCGGTAATCCGTATTTGTT (site CGCCATCCTAA) | 0
CGGAATCCATGGACCGGTTTTCCCGGTAATCCGTATTTGTT (site CGGAAACCTAA) | 1.09
CGGAATCCATGGACCGGTTTTCCCGGTAATCCGTATTTGTT (site CGGAAACCTAG) | 0.112
CGGAATCCATGGACCGGTTTTCCCGGTAATCCGTATTTGTT (site CGGAAACCTTA) | 0
CGGAATCCATGGACCGGTTTTCCCGGTAATCCGTATTTGTT (site CGGAAATCTAA) | 0
CGGAATCCATGGACCGGTTTTCCCGGTAATCCGTATTTGTT (site CGGAACCCTAA) | 0.157
CGGAATCCATGGACCGGTTTTCCCGGTAATCCGTATTTGTT (site CGGAACCCTAC) | 0.00563
CGGAATCCATGGACCGGTTTTCCCGGTAATCCGTATTTGTT (site CGGAACCCTCA) | 0.0146
CGGAATCCATGGACCGGTTTTCCCGGTAATCCGTATTTGTT (site CGGAACGCTAA) | 0.00389
CGGAATCCATGGACCGGTTTTCCCGGTAATCCGTATTTGTT (site CGGAAGACTAA) | 0
CGGAATCCATGGACCGGTTTTCCCGGTAATCCGTATTTGTT (site CGGAAGCCTAA) | 0.0104
CGGAATCCATGGACCGGTTTTCCCGGTAATCCGTATTTGTT (site CGGAAGCCTAT) | 0.00319
CGGAATCCATGGACCGGTTTTCCCGGTAATCCGTATTTGTT (site CGGAAGCCTGA) | 0
CGGAATCCATGGACCGGTTTTCCCGGTAATCCGTATTTGTT (site CGGAATACTAA) | 0
CGGAATCCATGGACCGGTTTTCCCGGTAATCCGTATTTGTT (site CGGAATACTAT) | 0
CGGAATCCATGGACCGGTTTTCCCGGTAATCCGTATTTGTT (site CGGAATACTGA) | 0
CGGAATCCATGGACCGGTTTTCCCGGTAATCCGTATTTGTT (site CGGAATCCTAA) | 1.19
CGGAATCCATGGACCGGTTTTCCCGGTAATCCGTATTTGTT (site CGGAATCCTAC) | 0
CGGAATCCATGGACCGGTTTTCCCGGTAATCCGTATTTGTT (site CGGAATCCTAG) | 0

Sequence | recombinant UMI read abundance (log10)
CGGAATCCATGGACCGGTTTTCCCGGTAATCCGTATTTGTT (site CGGAATCCTAT) | 0
CGGAATCCATGGACCGGTTTTCCCGGTAATCCGTATTTGTT (site CGGAATCCTCA) | 0.00562
CGGAATCCATGGACCGGTTTTCCCGGTAATCCGTATTTGTT (site CGGAATCCTCC) | 0.00652
CGGAATCCATGGACCGGTTTTCCCGGTAATCCGTATTTGTT (site CGGAATCCTGA) | 1.65
CGGAATCCATGGACCGGTTTTCCCGGTAATCCGTATTTGTT (site CGGAATCCTGT) | 0
CGGAATCCATGGACCGGTTTTCCCGGTAATCCGTATTTGTT (site CGGAATCCTTA) | 1.56
CGGAATCCATGGACCGGTTTTCCCGGTAATCCGTATTTGTT (site CGGAATCCTTG) | 0
CGGAATCCATGGACCGGTTTTCCCGGTAATCCGTATTTGTT (site CGGAATGCTAA) | 0.0054
CGGAATCCATGGACCGGTTTTCCCGGTAATCCGTATTTGTT (site CGGAATGCTAC) | 0
CGGAATCCATGGACCGGTTTTCCCGGTAATCCGTATTTGTT (site CGGAATGCTCA) | 0
CGGAATCCATGGACCGGTTTTCCCGGTAATCCGTATTTGTT (site CGGAATTCTAA) | 0
CGGAATCCATGGACCGGTTTTCCCGGTAATCCGTATTTGTT (site CGGAATTCTAG) | 0
CGGAATCCATGGACCGGTTTTCCCGGTAATCCGTATTTGTT (site CGGAATTCTTA) | 0
CGGAATCCATGGACCGGTTTTCCCGGTAATCCGTATTTGTT (site CGGACCCCTAA) | 0.00922
CGGAATCCATGGACCGGTTTTCCCGGTAATCCGTATTTGTT (site CGGACTCCTAA) | 0.00741
CGGAATCCATGGACCGGTTTTCCCGGTAATCCGTATTTGTT (site CGGACTCCTAC) | 0.00516
CGGAATCCATGGACCGGTTTTCCCGGTAATCCGTATTTGTT (site CGGACTCCTCA) | 0.00467
CGGAATCCATGGACCGGTTTTCCCGGTAATCCGTATTTGTT (site CGGACTGCTAA) | 0.0124
CGGAATCCATGGACCGGTTTTCCCGGTAATCCGTATTTGTT (site CGGAGGCCTAA) | 0.012
CGGAATCCATGGACCGGTTTTCCCGGTAATCCGTATTTGTT (site CGGAGTACTAA) | 0.00934
CGGAATCCATGGACCGGTTTTCCCGGTAATCCGTATTTGTT (site CGGAGTCCTAA) | 0.00217
CGGAATCCATGGACCGGTTTTCCCGGTAATCCGTATTTGTT (site CGGAGTCCTAT) | 0
CGGAATCCATGGACCGGTTTTCCCGGTAATCCGTATTTGTT (site CGGAGTCCTGA) | 0

Sequence | recombinant UMI read abundance (log10)
CGGAATCCATGGACCGGTTTTCCCGGTAATCCGTATTTGTT (site CGGATACCTAA) | 0.0155
CGGAATCCATGGACCGGTTTTCCCGGTAATCCGTATTTGTT (site CGGATTCCTAA) | 0.0126
CGGAATCCATGGACCGGTTTTCCCGGTAATCCGTATTTGTT (site CGGATTCCTAG) | 0
CGGAATCCATGGACCGGTTTTCCCGGTAATCCGTATTTGTT (site CGGATTCCTTA) | 0
CGGAATCCATGGACCGGTTTTCCCGGTAATCCGTATTTGTT (site CGGATTTCTAA) | 0
CGGAATCCATGGACCGGTTTTCCCGGTAATCCGTATTTGTT (site CGGCACCCTAA) | 0.0425
CGGAATCCATGGACCGGTTTTCCCGGTAATCCGTATTTGTT (site CGGCATCCTAA) | 0.0145
CGGAATCCATGGACCGGTTTTCCCGGTAATCCGTATTTGTT (site CGGCATCCTAC) | 0.011
CGGAATCCATGGACCGGTTTTCCCGGTAATCCGTATTTGTT (site CGGCATCCTCA) | 0.00889
CGGAATCCATGGACCGGTTTTCCCGGTAATCCGTATTTGTT (site CGGCATGCTAA) | 0.0214
CGGAATCCATGGACCGGTTTTCCCGGTAATCCGTATTTGTT (site CGGCCTCCTAA) | 0
CGGAATCCATGGACCGGTTTTCCCGGTAATCCGTATTTGTT (site CGGGAACCTAA) | 0.00313
CGGAATCCATGGACCGGTTTTCCCGGTAATCCGTATTTGTT (site CGGGATCCTAA) | 0.0888
CGGAATCCATGGACCGGTTTTCCCGGTAATCCGTATTTGTT (site CGGGATCCTAG) | 0
CGGAATCCATGGACCGGTTTTCCCGGTAATCCGTATTTGTT (site CGGGATCCTTA) | 0.00923
CGGAATCCATGGACCGGTTTTCCCGGTAATCCGTATTTGTT (site CGGGATTCTAA) | 0
CGGAATCCATGGACCGGTTTTCCCGGTAATCCGTATTTGTT (site CGGGTTCCTAA) | 0.0107
CGGAATCCATGGACCGGTTTTCCCGGTAATCCGTATTTGTT (site CGGTAGCCTAA) | 0.0806
CGGAATCCATGGACCGGTTTTCCCGGTAATCCGTATTTGTT (site CGGTATACTAA) | 0.0163
CGGAATCCATGGACCGGTTTTCCCGGTAATCCGTATTTGTT (site CGGTATCCTAA) | 0.107
CGGAATCCATGGACCGGTTTTCCCGGTAATCCGTATTTGTT (site CGGTATCCTAT) | 0
CGGAATCCATGGACCGGTTTTCCCGGTAATCCGTATTTGTT (site CGGTATCCTGA) | 0
